Earlier results in patent US20130303628A1, “CURCUMINOID SOLID DISPERSION FORMULATION” (ABBOTT LABORATORIES, priority 2010, published 2013).

Settings: acidic and neutral pH

- solubility in water: practically insoluble
SMILES: COc1cc(C=CC(=O)CC(=O)C=Cc2ccc(O)c(OC)c2)ccc1O [Curcumin, 1,7-Bis-(4-hydroxy-3-methoxyphenyl)-hepta-1,6-diene-3,5-dione]
